Laboratory results as given in patent US20230000840A1, “THERAPEUTIC AGENTS AND PROPHYLACTIC AGENTS FOR FUNCTIONAL GASTROINTESTINAL DISORDERS AND XEROSTOMIA” (NIPPON SHINYAKU CO., LTD., priority 2019, published 2023).

How the values were obtained:
[1] = system: anesthetized mice; assay: Measurement of secreted saliva amount in anesthetized mice; type: in vivo, mouse; settings: for Amount of saliva secreted: urethane-anesthetized male ICR mice, 10 mg/kg intravenous, cotton balls weighed after 30 minutes, average ± standard error
Protocol: 8-week-aged male ICR mice (Japan SLC, Inc.) were anesthetized with urethane (1650 mg/kg, intraperitoneal administration). After about 1 hour, a test compound or a vehicle (physiological saline containing 10% DMSO (OTSUKA NORMAL SALINE, manufactured by Otsuka Pharmaceutical Factory, Inc.)) was intravenously administered at 10 mg/kg, and immediately after that, one or two absorbent cotton wool balls ([…]) (Roller Cotton (cotton ball) SS, manufactured by Nichiei Co., Ltd.) were inserted into the mouth. The difference between the weight of the absorbent cotton balls after 30 minutes from insertion and the weight of the absorbent cotton balls before insertion was defined as an amount of saliva secreted. At this time, the test compound was dissolved in DMSO and then diluted 10-fold with physiological saline. The administration volumes of the test compound and the vehicle were each set to 5 mL/kg. The experiment was carried out in three parts. The number of cases in each administration group was 3-4.

[2] = system: ileum; assay: Magnus test: carbachol-induced contraction of isolated rat ileum; settings: test compound 10 μM, then carbachol 50 nM, 100% = carbachol 1000 nM, 0% = DMSO + carbachol 50 nM, average ± standard error, read-out: Enhancement ratio P of the contraction force
Protocol: 9- to 15-week-aged SD female rats (Japan SLC, Inc.) were exsanguinated to death by amputation of carotid artery under isoflurane anesthesia. Then, the ileum was removed from each rat, and cut to a length of 2 cm while excising the mesentery and connective tissue, to prepare an intestinal sample. In a Magnus tank, this sample was immersed and suspended in 20 mL of a Krebs solution at 37° C. (118 mM NaCl, 4.7 mM KCl, 2.5 mM CaCl2, 1.2 mM MgSO4, 1.2 mM KH2PO4, 11 mM D-glucose, 20 mM NaHCO3) aerated with a mixed gas of 95% O2 and 5% CO2. Then, a load of 1 g was applied to the sample to stabilize the tension.
One end of the sample was connected to an isotonic transducer (IT-10, Medical Agent), and tension (contraction force) data was imported to a personal computer via Power Lab (registered trademark) (A&D Instruments Limited). Carbachol (Carbamylcholine Chloride, Cat. No. 036-09841, manufactured by FUJIFILM Wako Pure Chemical Industries, Ltd.) was added to the Krebs solution in the Magnus tank such that the final concentration thereof was 1000 nM, and contraction of the sample was checked. A contraction force Tb of the sample at this time was defined as 100%. Then, the Magnus tank was washed with a Krebs solution three times to wash away carbachol, and the Magnus tank was finally filled with 20 mL of a Krebs solution.
Next, dimethyl sulfoxide (DMSO, Cat. No. 13445-74, manufactured by NACALAI TESQUE, INC.) was added to the Krebs solution in the Magnus tank, then carbachol was added to the Krebs solution in the Magnus tank such that the final concentration thereof was 50 nM, and contraction of the sample was checked. A contraction force Ta of the sample at this time was defined as 0%. Then, the Magnus tank was washed with a Krebs solution three times to wash away carbachol and DMSO, and the Magnus tank was finally filled with 20 mL of a Krebs solution. Next, a test compound dissolved in DMSO was added to the Krebs solution in the Magnus tank such that the final concentration thereof was 10 μM, then carbachol was added to the Krebs solution in the Magnus tank such that the final concentration thereof was 50 nM, and contraction of the sample was checked.
As described above, the contraction force Tb of the sample when carbachol was added at a final concentration of 1000 nM was defined as 100%, and the contraction force Ta of the sample when carbachol was added at a final concentration of 50 nM under the condition that DMSO was added first instead of the test compound was defined as 0%. The contraction force of the sample when carbachol was added at a final concentration of 50 nM under the condition that the test compound was added first at a final concentration of 10 μM was denoted by Tc, and an enhancement ratio P (unit: %) of the contraction force by the test compound was calculated according to the following equation (2). The increase in contraction force by the test compound was evaluated on the basis of the enhancement ratio P. The number of cases in each addition group was 3 to 7.
P=100×(Tc−Ta)/(Tb−Ta) (2)

Compound | Amount of saliva secreted [1] | activation at 10 µM [2] | Salivation promoting effect ([1]; urethane-anesthetized mice, dose not given)
COCC1(CN(C)c2cc(-c3cc(F)cc(C(F)(F)F)c3)nc3nc(-c4cnc(N5CCN(CC(=O)O)CC5)cn4)[nH]c23)CCC1 [Example 1, [4-(5-{5-[3-Fluoro-5-(trifluoromethyl)phenyl]-7-[{[1-(methoxymethyl)cyclobutyl]methyl}(methyl)amino]-1H-imidazo[4,5-b]pyridin-2-yl}pyrazin-2-yl)piperazin-1-yl]acetic acid] | 9.63 ± 2.90 mg | 30.4 ± 8.34% | 
COCC1(CN(C)c2cc(-c3cc(F)cc(C(F)(F)F)c3)nc3nc(-c4cnc(N5CCC(F)(C(=O)O)CC5)cn4)[nH]c23)CCC1 [Example 2, 4-Fluoro-1-(5-{5-[3-fluoro-5-(trifluoromethyl)phenyl]-7-[{[1-(methoxymethyl)cyclobutyl]methyl}(methyl)amino]-1H-imidazo[4,5-b]pyridin-2-yl}pyrazin-2-yl)piperidine-4-carboxylic acid] | 9.73 ± 3.61 mg | 61.5 ± 8% | 
CCOc1ncc(-c2cc(N(C)CC3(COC)CCC3)c3[nH]c(-c4cnc(N5CCC(C(=O)O)CC5)cn4)nc3n2)cc1C(F)(F)F [Example 3, 1-(5-{5-[6-Ethoxy-5-(trifluoromethyl)pyridin-3-yl]-7-[{[1-(methoxymethyl)cyclobutyl]methyl}(methyl)amino]-1H-imidazo[4,5-b]pyridin-2-yl}pyrazin-2-yl)piperidine-4-carboxylic acid] | 27.23 ± 5.94 mg | 57.3 ± 7.24% | 
CCOc1cc(-c2cc(N(C)CC3(COC)CCC3)c3[nH]c(-c4cnc(N5CCC(C(=O)O)CC5)cn4)nc3n2)cc(C(F)(F)F)n1.Cl.Cl [Example 4, 1-(5-{5-[2-Ethoxy-6-(trifluoromethyl)pyridin-4-yl]-7-[{[1-(methoxymethyl)cyclobutyl]methyl}(methyl)amino]-1H-imidazo[4,5-b]pyridin-2-yl}pyrazin-2-yl)piperidine-4-carboxylic acid dihydrochloride] | 77.35 ± 16.66 mg | 59.3 ± 7.17% | 
COCC1(CN(C)c2cc(-c3cc(C4CC4)nc(C(F)(F)F)c3)nc3nc(-c4cnc(N5CCC(OCC(=O)O)CC5)cn4)[nH]c23)CCCC1 [Example 5, {[1-(5-{5-[2-Cyclopropyl-6-(trifluoromethyl)pyridin-4-yl]-7-[{[1-(methoxymethyl)cyclopentyl]methyl}(methyl)amino]-1H-imidazo[4,5-b]pyridin-2-yl}pyrazin-2-yl)piperidin-4-yl]oxy}acetic acid] | 66.30 ± 15.32 mg | 33.5 ± 3.39% | 
CCOc1ncc(-c2cc(N(C)CC3(COC)CCCC3)c3[nH]c(-c4ccc(N5CCC(C(=O)O)CC5)cc4F)nc3n2)cc1C(F)(F)F [Example 6, 1-(4-{5-[6-Ethoxy-5-(trifluoromethyl)pyridin-3-yl]-7-[{[1-(methoxymethyl)cyclopentyl]methyl}(methyl)amino]-1H-imidazo[4,5-b]pyridin-2-yl}-3-fluorophenyl)piperidine-4-carboxylic acid] | 11.37 ± 2.87 mg | 26.7 ± 5.04% | 
CCOc1cc(-c2cc(N(C)CC(C)(C)COC)c3[nH]c(-c4cnc(N5CCC(C(=O)O)CC5)cn4)nc3n2)cc(C(F)(F)F)n1 [Example 7, 1-(5-{5-[2-Ethoxy-6-(trifluoromethyl)pyridin-4-yl]-7-[(3-methoxy-2,2-dimethylpropyl)(methyl)amino]-1H-imidazo[4,5-b]pyridin-2-yl}pyrazin-2-yl)piperidine-4-carboxylic acid] | 73.40 ± 28.54 mg | 25.8 ± 6.38% | 
CCOCC1(CN(C)c2cc(-c3cnc(C4CC4)c(C(F)(F)F)c3)nc3nc(-c4cnc(N5CCC(C(=O)O)CC5)cn4)[nH]c23)CCCC1 [Example 8, 1-(5-{5-[6-Cyclopropyl-5-(trifluoromethyl)pyridin-3-yl]-7-[{[1-(ethoxymethyl)cyclopentyl]methyl}(methyl)amino]-1H-imidazo[4,5-b]pyridin-2-yl}pyrazin-2-yl)piperidine-4-carboxylic acid] | 49.13 ± 11.95 mg | 12.4 ± 5.31% | 
CCOc1cc(-c2cc(N(C)CC3(COC)CCCC3)c3[nH]c(-c4cnc(N5CCC(C(=O)O)CC5)cn4)nc3n2)cc(C(F)(F)F)n1 [Example 9, 1-(5-{5-[2-Ethoxy-6-(trifluoromethyl)pyridin-4-yl]-7-[{[1-(methoxymethyl)cyclopentyl]methyl}(methyl)amino]-1H-imidazo[4,5-b]pyridin-2-yl}pyrazin-2-yl)piperidine-4-carboxylic acid] | 34.73 ± 11.39 mg | 36.9 ± 6.43% | 
COCC1(CN(C)c2cc(-c3cnc(C4CC4)c(C(F)(F)F)c3)nc3nc(-c4cnc(N5CCN(CCC(=O)O)CC5)cn4)[nH]c23)CCCCC1 [Example 10] | 329.83 ± 49.36 mg | 19.3 ± 5.52% | 
COCC1(CN(C)c2cc(-c3cnc(C4CC4)c(C(F)(F)F)c3)nc3nc(-c4ccc(OC5CCN(CC(=O)O)CC5)cc4F)[nH]c23)CCCC1 [Example 11, [4-(4-{5-[6-Cyclopropyl-5-(trifluoromethyl)pyridin-3-yl]-7-[{[1-(methoxymethyl)cyclopentyl]methyl}(methyl)amino]-1H-imidazo[4,5-b]pyridin-2-yl}-3-fluorophenoxy)piperidin-1-yl]acetic acid] | 51.85 ± 7.37 mg | 30.1 ± 3.79% | 
COC[C@@H]1CN(c2cnc(-c3nc4nc(-c5cnc(C6CC6)c(C(F)(F)F)c5)cc(N(C)CC5(COC)CCCCC5)c4[nH]3)cn2)CCN1CCC(=O)O [Example 12, 3-[(2S)-4-(5-{5-[6-Cyclopropyl-5-(trifluoromethyl)pyridin-3-yl]-7-[{[1-(methoxymethyl)cyclohexyl]methyl}(methyl)amino]-1H-imidazo[4,5-b]pyridin-2-yl}pyrazin-2-yl)-2-(methoxymethyl)piperazin-1-yl]propanoic acid] | 131.75 ± 28.63 mg | 49.3 ± 11% | 
CCOCC1(CN(C)c2cc(-c3cnc(C4CC4)c(C(F)(F)F)c3)nc3nc(-c4cnc(N5CCN(CCC(=O)[O-])C[C@H]5C)cn4)[nH]c23)CCCC1.[Na+] [Example 13, sodium 3-[(3R)-4-(5-{5-[6-cyclopropyl-5-(trifluoromethyl)pyridin-3-yl]-7-[{[1-(ethoxymethyl)cyclopentyl]methyl}(methyl)amino]-1H-imidazo [4,5-b]pyridin-2-yl}pyrazin-2-yl)-3-methylpiperazin-1-yl]propanoate] | 214.40 ± 51.06 mg | 17.7 ± 12.7% | 
COCC1(CN(C)c2cc(-c3cc(C4CC4)nc(C(F)(F)F)c3)nc3nc(-c4cnc(N5CCN(CCC(=O)[O-])C[C@H]5C)cn4)[nH]c23)CCCCC1.[Na+] [Example 14, Sodium 3-[(3R)-4-(5-{5-[2-cyclopropyl-6-(trifluoromethyl)pyridin-4-yl]-7-[{[1-(methoxymethyl)cyclohexyl]methyl}(methyl)amino]-1H-imidazo[4,5-b]pyridin-2-yl}pyrazin-2-yl)-3-methylpiperazin-1-yl]propanoate] | 142.70 ± 23.51 mg | 65.1 ± 15% | 
CC[C@@H]1C(=O)OC[C@@H]1Cc1cncn1C [pilocarpine, reference compound] |  |  | exhibited a salivation promoting effect
